Results taken from paper PMC9798496 (ACS Omega, 2022).
“Also recorded” adds a separate entry of the source.

Tested on: healthy mice
Assay: MicroPET/CT biodistribution in healthy mice
Type: in vivo
Conditions: PET/CT

uptake in the center of the brain: about 1.6 SUV
uptake in the center of the heart: about 2.7 SUV
brain uptake of [18F]FDG relative to [18F]Glc1 (center of the brain): about 20 times
heart uptake of [18F]FDG relative to [18F]Glc1 (center of the heart): about 14 times
Compound: OC[C@H]1OC(O)[C@H](F)[C@@H](O)[C@@H]1O (some centres unmarked) [[^18F]FDG, fluorodeoxyglucose]
site of uptake, metabolism and elimination: typical metabolism in the heart, brain, and brown fat; also recorded: uptake was observed in the brain and heart
